In patent publication KR20180032031A, “이소디메틸웨델로락톤을 포함하는 화장료 조성물” (주식회사 엘지생활건강, priority 2016, dated 2018):
Values belong to the compound of their own block, whether it stands above or below them.

Legend:
[1] = Anti-glycation effect (L-arginine and glucose); conditions: 70 ℃, 4 h, 420 nm
[2] = test system: RAW264.7 cells, nitric oxide (NO) [RAW264.7 세포, 일산화질소(NO)]; experiment: NO production inhibition in LPS-stimulated RAW264.7 cells (GRIESS method); type: cell-based; conditions: Mus musculus, LPS 1 ㎍, 24 h, read-out: NO production inhibition rate
[3] = test system: human-derived fibroblasts, type I collagen [인간 유래 섬유아세포, 제1형 콜라겐]; experiment: Type I collagen synthesis promotion in human-derived fibroblasts (PICP EIA kit); type: cell-based; conditions: 48 h, n = 4
[4] = Free radical scavenging (DPPH), antioxidant effect; conditions: 37 ℃, 30 min, 520 nm, n = 3
[5] = test system: B-16 mouse melanoma cells [쥐의 멜라노마 세포(B-16 mouse melanoma cell)]; experiment: Melanin total amount reduction in B-16 mouse melanoma cells (whitening effect); type: cell-based; conditions: 3 days, n = 3; for melanin production amount: absorbance at 400 nm per 1×10^6 cells
elastase [엘라스타제] = target: T1, elastase [엘라스타제] (Homo sapiens, UniProt P08246); experiment: Elastase activity inhibition; type: biochemical; conditions: pH 7.5, room temperature, n = 3; for enzyme activity: slope of absorbance at 405 nm
T1 construct: 엘라스타제(elastase)는 사람의 백혈구 세포로부터 유래한 것을 사용하였고; from tissue; host or cells: human leukocytes
T1 sequence (P08246 30-267): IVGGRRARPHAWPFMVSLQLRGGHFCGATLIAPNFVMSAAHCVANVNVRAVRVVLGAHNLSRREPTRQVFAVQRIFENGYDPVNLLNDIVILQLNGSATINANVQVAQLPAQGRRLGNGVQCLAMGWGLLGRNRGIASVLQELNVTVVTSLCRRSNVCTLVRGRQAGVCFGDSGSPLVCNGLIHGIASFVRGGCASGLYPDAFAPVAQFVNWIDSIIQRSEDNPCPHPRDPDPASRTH

collagenase [콜라게네이즈] = experiment: Collagenase activity inhibition; type: biochemical, rat/mouse; conditions: pH 7.5, room temperature, n = 3; for enzyme activity: maximum slope of absorbance at 345 nm; for inhibition rate: collagenase

SMILES: N=C(N)NN [Aminoguanidine, reference compound]
inhibition rate ([1]; 55 ppm): 54.89%

SMILES: CNC(=N)NCCC[C@H](N)C(=O)O [L-NMMA, L-NG-Monomethylarginine, reference compound]
inhibition at 10 ppm [2]: 41%

free radical scavenging rate (IC50) [4]: 7.5
SMILES: O=C1O[C@H]([C@@H](O)CO)C(O)=C1O [비타민 C, L-Ascorbic acid, reference compound]
type I collagen production amount ([3]; 50 ppm): 246.8 ng/mL
activation at 50 ppm ([3]; Homo sapiens, Fibroblast, collagen production vs negative control, 50 ppm, read-out: increase rate): 64.3%

SMILES: OC[C@H]1O[C@@H](Oc2ccc(O)cc2)[C@H](O)[C@@H](O)[C@@H]1O [알부틴, reference compound]
melanin production amount ([5]; 100 ppm): 0.228 abs
inhibition at 100 ppm ([5]; Mus musculus, 72 h, total melanin vs negative control, 100 ppm, read-out: inhibition rate): 30.9%

SMILES: O=c1oc2c(O)cc(O)cc2c2oc3cc(O)c(O)cc3c12 [화학식1의 화합물, 2,4,8,9-tetrahydroxy-[1]benzofuro[3,2-c]chromen-6-one]
melanin production amount ([5]; 1 ppm): 0.251 abs
melanin production amount ([5]; 10 ppm): 0.232 abs
inhibition at 1 ppm ([5]; Mus musculus, 72 h, total melanin vs negative control, 1 ppm, read-out: inhibition rate): 23.9%
inhibition at 10 ppm ([5]; Mus musculus, 72 h, total melanin vs negative control, 10 ppm, read-out: inhibition rate): 29.7%
type I collagen production amount ([3]; 1 ppm): 180.3 ng/mL
type I collagen production amount ([3]; 10 ppm): 260.1 ng/mL
activation at 1 ppm ([3]; Homo sapiens, Fibroblast, collagen production vs negative control, 1 ppm, read-out: increase rate): 20%
activation at 10 ppm ([3]; Homo sapiens, Fibroblast, collagen production vs negative control, 10 ppm, read-out: increase rate): 73.2%
enzyme activity (elastase [엘라스타제]; 10 ppm): 3.7
enzyme activity (elastase [엘라스타제]; 20 ppm): 3.2
inhibition at 10 ppm (elastase [엘라스타제]; elastase, 10 ppm, read-out: inhibition rate): 64.4%
inhibition at 20 ppm (elastase [엘라스타제]; elastase, 20 ppm, read-out: inhibition rate): 69.1%
enzyme activity (collagenase [콜라게네이즈]; 100 ppm): -2.34
enzyme activity (collagenase [콜라게네이즈]; 200 ppm): -2.61
inhibition rate (collagenase [콜라게네이즈]; 100 ppm): 24.57%
inhibition rate (collagenase [콜라게네이즈]; 200 ppm): 32.37%
inhibition at 1 ppm ([2]; 1 ppm): 36.2%
inhibition at 10 ppm [2]: 43.9%
inhibition at 100 ppm ([2]; 100 ppm): 55.2%
inhibition rate ([1]; 25 ppm): 44.32%
inhibition rate ([1]; 50 ppm): 65.20%
